{"source": "patent US10874727B2", "about": "“Inducible regulatory t-cell generation for hematopoietic transplants” (The Trustees of the University of Pennsylvania, priority 2008, dated 2020)", "key": {"[1]": {"tested_on": "PBMNCs", "experiment": "Suppression by expanded Tregs (ratios of Tregs to PBMNCs)", "assay_type": "cell-based, human", "conditions": "TGFβ 10 ng/ml added to the cells", "from_the_text": "(§1) Adding rapa, which is an mTOR inhibitor, (labeled as +) reduced mean expansion rates by 30-fold with beads resulting in ≤10-fold mean expansion rates by day 14."}, "[2]": {"tested_on": "CD4+25−45RA+ cells", "experiment": "Foxp3 expression at day 14 after Decitibine ± TGFβ induction and re-stimulation with anti-CD3 loaded KT64/86", "assay_type": "cell-based, human", "conditions": "for Foxp3 expression: Decitibine 5 μM day 7 ± TGFβ 10 ng/ml day 0, re-stimulated day 7", "description": "The next set of experiments was designed to determine whether re-stimulation of iTreg increases the percentage of Foxp3++ cells. nTreg (CD4^+25^++) and CD4^+25^−45 RA^+ cells were purified from peripheral blood (PB) using magnetic beads and the cells were stimulated with anti-CD3 loaded KT64/86 cells (K562 cells modified to express an Fc receptor CD64 and CD86). nTreg were cultured in the presence of IL-2 (300 U/ml) and Rapamycin (109 nM) while CD4^+25^− cells were cultured with IL-2 alone, or were induced to become Treg by the addition of Decitibine (5 μM at day 7) and Rapamycin (109 nM at day 7). Portions of the CD4^+25^−45 RA^+ and Decitibine iTreg cultures were also re-stimulated on day 7 with anti-CD3 loaded KT64/86 cells. After a total of 14 days, cells were harvested and the expression of CD4, CD25, and Foxp3 was measured using flow cytometry. FIG. 6 summarizes the results in the context of percentage of CD4+ gated cells expressing low (Foxp3+) or high (Foxp3++) levels of Foxp3.\nThe next set of experiments was designed to determine whether TGFβ could synergize the effects of Decitibine to induce Foxp3 expression in the cells. Briefly, nTreg (CD4^+25^++) and CD4^+25^−45 RA^+ cells were purified from peripheral blood using magnetic beads and stimulated with anti-CD3 loaded KT64/86 cells. nTreg were cultured in the presence of IL-2 (300 U/ml) and Rapamycin (109 nM) while CD4^+25^− cells were cultured with IL-2 alone, or were induced to become Treg by the addition of Decitibine (5 μM at day 7) in the presence or absence of TGFβ (10 ng/ml, day 0). All samples were re-stimulated on day 7 with anti-CD3 loaded KT64/86 cells. After a total of 14 days, cells were harvested and expression of CD4, CD25, and Foxp3 was measured using flow cytometry."}, "[3]": {"tested_on": "CD4+25− T cells", "experiment": "iTreg generation from CD4+25− T cells cultured with allogeneic TLR9 activated pDCs", "assay_type": "cell-based, human", "conditions": "IDO inhibition by 1MT in pDC cultures", "from_the_text": "(§2) CD4^+25^− T cells, when cultured with allogeneic TLR9 activated allogeneic plasmacytoid dendritic cells (pDCs), but not B-cells, lead to the generation of iTregs, CD4^+25^+FoxP3^+ suppressor cells (FIG. 2). It was also observed that iTregs (closed), but not T cells primed to TLR activated B cells (open squares), were potently suppressive of a naïve MLR culture (x-axis are x 104; MLR used 105 naïve T cells; FIG. 3). […] Since IDO catabolizes tryptophan into kynurenines (KYN), it is believed that iTregs can be generated in B cell cultures using KYN."}, "[4]": {"tested_on": "CD4+25−45RA+ T cells", "experiment": "iTreg generation: FoxP3 flow phenotype of cultured CD4+25−45RA+ T cells at day 10", "assay_type": "cell-based, human", "conditions": "for iTreg generation / induction of CD4+127loFoxP3hi cells by day 10: single agents: rapa, TGFb 10 ng/ml, SAHA 300 nM, TSA 100 nM", "description": "(§3) For initial studies, to ensure inducible Treg (iTreg) conversion was being examined and not natural Treg (nTreg) expansion, CD4^+25^−45 RA^+ T cells are isolated from ficolled buffy coat cells by negative selection (CD8, CD11b, CD16, CD19, CD36, CD56 CD25) followed by CD45RA positive selection using beads. Cells are cultured in X-Vivo-15 or trypt-free media, as indicated, along with human ABneg serum (10%) and L-glutamine. rIL-2 (300 U/ml: Chiron) is added on day 2 and with re-feeds.\nIn order to assay for the presence of non-Tregs and nTregs, multi-color phenotyping can be employed pre- and post-isolation and on days 7, 10, 14, 21 for both non-Tregs and nTregs (CD4/25/127lo/FoxP3) for co-expression of adhesion molecules (e.g., CD62L; LFA-1), chemokine receptors (e.g., CCR4-9; CXCR3), and cytokines (IL2, IL17, TNFa, IL10). Phosphorylated-Stat5 and p-Akt can be analyzed at 15′ post-stimulation with PMA/ionomycin.\n(§4) To simulate IDO effects, cells were cultured in low tryp+KYN using KYN at 10 μM+trypt at 1 μM until day 7 then 5 μM trypt beyond day 7 to support expansion after iTreg “imprinting” has occurred. Decitibine was added at 1-5 μM (final) to day 3 cultures. Cultures were expanded with anti-CD3/28 mAb-loaded, irradiated KT32 (FcR+) cells. Anti-CD3/28 beads (3 beads:1 cell) or 100 Gy irradiated, anti-CD3 (OKT3) loaded KT64/86 cells (1 KT cell:2 CD4^+25^− T cells) are added on day 0. Cell density is maintained at 0.2-2×10^6/ml by 50% vol/vol re-feeds. By 10 days, diluent cultured cells expanded about 30-fold, decibine about 11 fold and low tryp/KYN about 5-fold; CD4+CD127loFoxP3hi cells were 1%, 16%, and 13%, respectively (FIG. 4; upper, FoxP3hi; lower box, FoxP3int,lo). […] In studies using umbilical cord blood (UCB) nTregs, day 11 cultures re-stimulated with KT cells expanded an additional 20-fold compared to no re-stimulation.\n(§5) The next set of experiments were designed to compare the effects of a HDACi in a bead- or cell-based artificial antigen-presenting cell system (KT32) for generating iTregs (FIGS. 5B and 5C). Purified human naïve T cells (CD4^+, CD25^−, CD45RA^+) were stimulated with KT32 (K562 engineered to express human CD32) loaded with anti-CD3 and CD28 antibodies. The cells were cultured for 3 days and SAHA added a single time at the indicated concentrations, and analyzed 7 days later (day 10) for Foxp3 expression (FIG. 5B). Purified human naïve T cells (CD4^+, CD25^−, CD45RA^+) were stimulated with KT32 (K562 engineered to express human CD32) loaded with anti-CD3 and CD28 antibodies. The cells were cultured for 3 days and Trichostatin A added a single time at the indicated concentrations, and analyzed 7 days later (day 10) for Foxp3 expression.\nThe next set of experiments were designed to compare the effects of the combination of an HDACi with a demethylating agent in a bead- and cell-based antigen-presenting cell system (FIG. 5F). Purified human naïve T cells (CD4^+, CD25^−, CD45RA^+) were stimulated with clinical grade anti-CD3/28 beads or with KT32 (K562 engineered to express human CD32) loaded with anti-CD3 and CD28 antibodies. On day 3 of culture, the specified HDACi were added. On day 7, a single dose of Decitibine (1 μM) was added and cultures analyzed 3 days later (day 10) for Foxp3 expression."}, "[5]": {"tested_on": "CD4+25−45RA+ T cells", "experiment": "Expansion of CD4+25−45RA+ T cells in bead- or cell-based artificial APC cultures", "design": "species or system human", "description": "as §3, §4\nas §5, with “Purified human naïve T cells (CD4^+, CD25^−, CD45RA^+) were stimulated with KT32 (K562 engineered to express human CD32) loaded with anti-CD3 and CD28 antibodies.” left out\nThe next set of experiments were designed to compare the effects of a demethylating agent in a bead- or cell-based artificial antigen-presenting cell system (KT32) for generating iTregs (FIGS. 5D and 5E). […] The cells were cultured for 3 days and Decitibine added a single time at the indicated concentrations, and analyzed 7 days later (day 10) for Foxp3 expression (FIG. 5D). […] The cells were cultured for 3 days and 5-Azacytidine added a single time at the indicated concentrations, and analyzed 7 days later (day 10) for Foxp3 expression (FIG. 5E).\nThe next set of experiments were designed to compare the effects of the combination of an HDACi with a demethylating agent in a bead- and cell-based antigen-presenting cell system (FIG. 5F). […] On day 7, a single dose of Decitibine (1 μM) was added and cultures analyzed 3 days later (day 10) for Foxp3 expression."}, "[6]": {"tested_on": "CD4+25+ Tregs", "experiment": "Expansion of CD4+25+ Tregs with anti-CD3/28 microbeads or KT64/86 cells plus IL-2, with or without rapa", "assay_type": "cell-based, human", "from_the_text": "as §1"}, "[7]": {"tested_on": "naïve MLR culture", "experiment": "MLR suppression by iTregs generated in B cell cultures using KYN", "assay_type": "cell-based, human", "conditions": "KYN added to allogeneic B cell cultures (50 μM elsewhere in the source); not blocked by 1MT", "from_the_text": "as §2\nIt has been shown that CD4^+25^− T-cells exposed to allogeneic TLR9 activated plasmacytoid dendritic cells (pDCs), but not B-cells, leads to the generation of iTregs (Moseman et al., 2004, J Immunol 173:4433-42), CD4^+25^+FoxP3^+ suppressor cells, a process dependent upon the enzyme indoleamine 2,3-dioxygenase (IDO) that catabolizes tryptophan. […] Because obtaining high numbers of non-malignant B-cells or pDCs from leukemia/lymphoma patients would be difficult, low trypt/KYN conditions in an artificial antigen-presenting cell expansion system was examined. In considering strategies for iTreg generation, experiments were designed to focus on molecular features preferentially associated with nTregs vs naïve or T effector cells. […]"}, "[8]": {"tested_on": "CD8+ T cell", "experiment": "iTreg suppression of CD8+ T cell proliferation by CFSE dye-dilution", "assay_type": "cell-based, human", "conditions": "1:16 ratio", "description": "as §4\nIn vitro potency of expanded iTregs vs nTregs may be assayed for suppression in MLR and anti-CD3 mAb driven, CD8+ CFSE T cell proliferation assays."}}, "note": "Entries after “also recorded” stand apart in the source; their conditions may differ."}
{"compound": "transforming growth factor-beta [TGFβ]", "values": [{"measurement": "suppression", "setting": "[1]", "value": "did not increase suppression"}, {"measurement": "Foxp3 expression", "setting": "[2]", "value": "synergizes with Decitibine to induce Foxp3 expression"}]}
{"compound": "Cn1cc(C[C@H](N)C(=O)O)c2ccccc21", "note": "[1MT, 1-methyl-tryptophan]", "values": [{"measurement": "iTreg conversion", "setting": "[3]", "value": "prevented iTreg conversion"}]}
{"compound": "O=C(CCCCCCC(=O)Nc1ccccc1)NO", "note": "[SAHA, suberoylanilide hydroxamic acid]", "values": [{"measurement": "iTreg generation / induction of CD4+127loFoxP3hi cells by day 10", "setting": "[4]", "value": "did not result in iTregs; also recorded: No iTreg generation"}, {"measurement": "T cell expansion", "setting": "[5]; SAHA 300 nM on day 3", "value": "did not inhibit T cell expansion"}, {"measurement": "toxicity in T cell culture", "setting": "[5]; SAHA 100 μM on day 0", "value": "toxic"}]}
{"compound": "CO[C@H]1C[C@@H]2CC[C@@H](C)[C@@](O)(O2)C(=O)C(=O)N2CCCC[C@H]2C(=O)O[C@H]([C@H](C)C[C@@H]2CC[C@@H](O)[C@H](OC)C2)CC(=O)[C@H](C)/C=C(\\C)[C@@H](O)[C@@H](OC)C(=O)[C@H](C)C[C@H](C)/C=C/C=C/C=C/1C", "note": "[rapa, rapamycin]", "values": [{"measurement": "reduction of mean expansion", "setting": "[6]; Rapa added to KT64/86 driven cultures", "value": 10, "unit": "fold"}, {"measurement": "reduction of mean expansion rates", "setting": "[6]; rapa added, anti-CD3/28 beads", "value": 30, "unit": "fold"}, {"measurement": "mean expansion rates by day 14", "setting": "[6]; rapa added, anti-CD3/28 beads, day 14", "value": "≤ 10", "unit": "fold"}]}
{"compound": "Nc1ccccc1C(=O)CC(N)C(=O)O", "note": "(stereo not shown) [KYN, kynurenine]", "values": [{"measurement": "MLR suppression / suppressive iTregs", "setting": "[7]", "value": "potent MLR suppression; also recorded: potently suppressive iTregs"}]}
{"compound": "CC(/C=C/C(=O)NO)=C\\[C@@H](C)C(=O)c1ccc(N(C)C)cc1", "note": "[TSA, trichostatin A]", "values": [{"measurement": "CD4+127loFoxP3hi", "setting": "[4]; bead expanded cultures, day 10, diluent 1.7", "value": 1.6, "unit": "%"}, {"measurement": "FoxP3int/lo", "setting": "[4]; bead expanded cultures, day 10, diluent 21.8%", "value": 15.4, "unit": "%"}, {"measurement": "iTreg generation / induction of CD4+127loFoxP3hi cells by day 10", "setting": "[4]", "value": "No iTreg generation"}, {"measurement": "Day 10 expansions", "setting": "[5]; cell-based cultures, HDACi day 3, decitibine day 7, diluent 20-fold", "value": 15, "unit": "fold"}]}
{"compound": "Nc1ncn([C@H]2C[C@H](O)[C@@H](CO)O2)c(=O)n1", "note": "[decitibine, 5-aza-2′-deoxycitidine]", "values": [{"measurement": "CD4+CD127loFoxP3hi cells", "setting": "[4]; by 10 days, KT32 cultures, decitibine 1-5 μM day 3 or low tryp+KYN", "value": 16, "unit": "%"}, {"measurement": "expansion by 10 days", "setting": "[5]; anti-CD3/28 mAb-loaded KT32 cells, decitibine 1-5 μM day 3, KYN 10 μM + trypt 1 μM until day 7 then 5 μM", "value": "about 11 fold"}, {"measurement": "percentage of Foxp3++ cells", "setting": "[2]; Decitibine 5 μM and Rapamycin 109 nM at day 7, re-stimulation on day 7", "value": "significantly increased"}, {"measurement": "Foxp3 expression", "setting": "[2]", "value": "some Foxp3 expression"}, {"measurement": "iTreg suppression of CD8+ T cell proliferation", "setting": "[8]", "value": 41, "unit": "%"}]}
